In PubChem BioAssay AID624167 (Sanford-Burnham Center for Chemical Genomics, 2012):
The source made the active and inactive calls.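 Rule for the calls: active = mean IC50 for reducing PEG3 promoter reporter signal at or below a set limit, with IC50 above the limit in both counter screens; inactive = the rest, including counter screen hits.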

Tests used:
[1] = system: GAPDH; assay: Peg3 promoter luciferase inhibitors, potency, dose response, cell-based, HeLa, CREF/GAPDH counter-screen panel (AID 624167); conditions: CREF/GAPDH counter-screens
[2] = target: PEG-3 (UniProt Q6IN02); assay: as above; conditions: HeLa PEG-Prom luciferase reporter, overnight, CREF/GAPDH counter-screens, mean of runs
Chain of PEG-3 (UniProt Q6IN02) (Q6IN02 whole entry, looked up): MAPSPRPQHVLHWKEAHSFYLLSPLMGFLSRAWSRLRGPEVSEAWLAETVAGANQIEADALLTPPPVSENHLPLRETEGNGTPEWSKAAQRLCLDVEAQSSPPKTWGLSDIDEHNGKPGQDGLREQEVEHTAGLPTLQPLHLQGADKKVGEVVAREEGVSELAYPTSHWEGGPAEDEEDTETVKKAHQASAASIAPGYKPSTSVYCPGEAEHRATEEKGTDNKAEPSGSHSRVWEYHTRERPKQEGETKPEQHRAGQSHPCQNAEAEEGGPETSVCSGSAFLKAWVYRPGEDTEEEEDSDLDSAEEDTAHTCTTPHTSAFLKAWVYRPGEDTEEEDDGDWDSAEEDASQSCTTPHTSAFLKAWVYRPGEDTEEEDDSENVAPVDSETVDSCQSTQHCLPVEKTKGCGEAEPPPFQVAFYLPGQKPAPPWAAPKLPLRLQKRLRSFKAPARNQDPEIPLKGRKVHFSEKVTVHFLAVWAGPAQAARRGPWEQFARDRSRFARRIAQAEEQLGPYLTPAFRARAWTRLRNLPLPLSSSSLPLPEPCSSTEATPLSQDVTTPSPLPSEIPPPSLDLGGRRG

[3] = as above; conditions: CREF/GAPDH counter-screens; GAPDH; mean of runs
[4] = system: Rat fibroblasts (CREF); assay: as above; conditions: CREF/GAPDH counter-screens
[5] = system: PEG-3; assay: as above; conditions: HeLa PEG-Prom luciferase reporter, overnight, CREF/GAPDH counter-screens
[6] = run 1, dose range 1, individual replicate IC50 per panel
[7] = run 2, dose range 1, individual replicate IC50 per panel

## O=C(Nc1ccccc1)c1nc[nH]c1C(=O)NCCCCCCNC(=O)c1[nH]cnc1C(=O)Nc1ccccc1
[1]; [6]
  IC50: > 100 µM
[1]; [7]
  IC50: 16 µM
[2]
  IC50: inactive
[3]
  IC50: inactive
[4]; mean of runs
  IC50: > 100 µM (inactive)
[4]; [6]
  IC50: > 100 µM
[4]; [7]
  IC50: > 100 µM
[5]; [6]
  IC50: 2.4 µM
[5]; [7]
  IC50: > 100 µM

## COC1CC(C)C(OC)c2cc(O)cc(c2O)NC(=O)C(C)=CC=CC(C)C(OC(N)=O)C(C)=CC(C)C1OC (stereo not given)
[1]; [6]
  IC50: 45.1 µM
[1]; [7]
  IC50: 45.7 µM
[2]
  IC50: 13.8 µM
[3]
  IC50: inactive
[4]; mean of runs
  IC50: > 100 µM (inactive)
[4]; [6]
  IC50: > 100 µM
[4]; [7]
  IC50: > 100 µM
[5]; [6]
  IC50: 22.2 µM
[5]; [7]
  IC50: 5.41 µM

## Nc1nonc1-n1nnc(C(=O)N/N=C/c2cc(Br)ccc2O)c1CNc1ccccc1
[1]; [6]
  IC50: 45.2 µM
[1]; [7]
  IC50: 59.3 µM
[2]
  IC50: 10.9 µM
[3]
  IC50: inactive
[4]; mean of runs
  IC50: 77.8 µM (inactive)
[4]; [6]
  IC50: > 100 µM
[4]; [7]
  IC50: 55.7 µM
[5]; [6]
  IC50: 4.19 µM
[5]; [7]
  IC50: 17.6 µM

## N=c1n(CC(=O)c2ccc([N+](=O)[O-])cc2)c2ccccc2n1Cc1ccc(Cl)cc1
[1]; [6]
  IC50: > 80 µM
[1]; [7]
  IC50: 33.3 µM
[2]
  IC50: 9.2 µM
[3]
  IC50: inactive
[4]; mean of runs
  IC50: 27 µM
[4]; [6]
  IC50: 26.4 µM
[4]; [7]
  IC50: 27.6 µM
[5]; [6]
  IC50: 9.65 µM
[5]; [7]
  IC50: 8.76 µM

## O=C(CSC1c2ccccc2-c2ccccc21)N/N=C/c1ccccc1O
[1]; [6]
  IC50: > 100 µM
[1]; [7]
  IC50: > 100 µM
[2]
  IC50: inactive
[3]
  IC50: > 100 µM (inactive)
[4]; mean of runs
  IC50: 69.5 µM (inactive)
[4]; [6]
  IC50: > 100 µM
[4]; [7]
  IC50: 38.9 µM
[5]; [6]
  IC50: 3.04 µM
[5]; [7]
  IC50: > 100 µM

## CCc1ccc(/C=C2\SC(=S)N(CCCC(=O)Nc3ccccn3)C2=O)cc1
[1]; [6]
  IC50: 15.6 µM
[1]; [7]
  IC50: 40.1 µM
[2]
  IC50: 4.03 µM
[3]
  IC50: 27.8 µM
[4]; mean of runs
  IC50: 50.2 µM (inactive)
[4]; [6]
  IC50: > 100 µM
[4]; [7]
  IC50: 0.313 µM
[5]; [6]
  IC50: 5.21 µM
[5]; [7]
  IC50: 2.85 µM

## CCCC(=O)NC(c1ccc(N(C)C)cc1)c1ccc2cccnc2c1O (stereo not given)
[1]; [6]
  IC50: > 100 µM
[1]; [7]
  IC50: > 100 µM
[2]
  IC50: 1.75 µM
[3]
  IC50: > 100 µM (inactive)
[4]; mean of runs
  IC50: 72.3 µM (inactive)
[4]; [6]
  IC50: > 100 µM
[4]; [7]
  IC50: 44.7 µM
[5]; [6]
  IC50: 2.74 µM
[5]; [7]
  IC50: 0.758 µM

## C=C1CC2(OC1=O)c1ccccc1CCc1ccccc12
[1]; [6]
  IC50: 15.2 µM
[1]; [7]
  IC50: 12.5 µM
[2]
  IC50: 4.84 µM
[3]
  IC50: 13.8 µM
[4]; mean of runs
  IC50: 7.93 µM
[4]; [6]
  IC50: 7.58 µM
[4]; [7]
  IC50: 8.28 µM
[5]; [6]
  IC50: 5.7 µM
[5]; [7]
  IC50: 3.98 µM

## CCCCC(=O)NC(c1ccccc1OC)c1ccc2cccnc2c1O (stereo not given)
[1]; [6]
  IC50: 36.5 µM
[1]; [7]
  IC50: > 100 µM
[2]
  IC50: 10.6 µM
[3]
  IC50: inactive
[4]; mean of runs
  IC50: > 100 µM (inactive)
[4]; [6]
  IC50: > 100 µM
[4]; [7]
  IC50: > 100 µM
[5]; [6]
  IC50: 3.35 µM
[5]; [7]
  IC50: 17.8 µM

## CN(C)CC1CCC/C(=C\c2ccc(OC(=O)c3ccc(Cl)cc3)cc2)C1=O (stereo not given)
[1]; [6]
  IC50: 49.8 µM
[1]; [7]
  IC50: 57.7 µM
[2]
  IC50: 5.81 µM
[3]
  IC50: inactive
[4]; mean of runs
  IC50: > 100 µM (inactive)
[4]; [6]
  IC50: > 100 µM
[4]; [7]
  IC50: > 100 µM
[5]; [6]
  IC50: 6.76 µM
[5]; [7]
  IC50: 4.86 µM

## Clc1ccccc1/C=C/c1nc(-c2ccccn2)no1
[1]; [6]
  IC50: 3.51 µM
[1]; [7]
  IC50: < 0.2 µM
[2]
  IC50: inactive
[3]
  IC50: 1.86 µM
[4]; mean of runs
  IC50: 28 µM
[4]; [6]
  IC50: 25.7 µM
[4]; [7]
  IC50: 30.3 µM
[5]; [6]
  IC50: 3.68 µM
[5]; [7]
  IC50: > 100 µM

## CN1CCC2(CC1)N=C(c1ccc(F)cc1)C(=S)N2C(=O)c1ccc(C(C)(C)C)cc1
[1]; [6]
  IC50: 20.4 µM
[1]; [7]
  IC50: 20.6 µM
[2]
  IC50: 3.75 µM
[3]
  IC50: 20.5 µM
[4]; mean of runs
  IC50: 36.5 µM
[4]; [6]
  IC50: 28.6 µM
[4]; [7]
  IC50: 44.5 µM
[5]; [6]
  IC50: 6.48 µM
[5]; [7]
  IC50: 1.01 µM

## O=C1C=CC(=O)N1c1ccc(-c2nc3ccccc3o2)cc1
[1]; [6]
  IC50: 41.6 µM
[1]; [7]
  IC50: 35.3 µM
[2]
  IC50: 9.67 µM
[3]
  IC50: inactive
[4]; mean of runs
  IC50: 12.8 µM
[4]; [6]
  IC50: 5.55 µM
[4]; [7]
  IC50: 20 µM
[5]; [6]
  IC50: 11.3 µM
[5]; [7]
  IC50: 8.02 µM

## COC(=O)C1C=CC(OC2OC(COC(C)=O)C(OC(C)=O)C(OC(C)=O)C2OC(C)=O)n2c(=O)n(-c3ccccc3)c(=O)n21 (stereo not given)
[1]; [6]
  IC50: 19.4 µM
[1]; [7]
  IC50: 17.7 µM
[2]
  IC50: 9.13 µM
[3]
  IC50: 18.5 µM
[4]; mean of runs
  IC50: 8.06 µM
[4]; [6]
  IC50: 6.83 µM
[4]; [7]
  IC50: 9.29 µM
[5]; [6]
  IC50: 10.2 µM
[5]; [7]
  IC50: 8.07 µM

## Cc1ccc(OCC(=O)c2cc(C)n(-c3ccccc3)c2C)c([N+](=O)[O-])n1
[1]; [6]
  IC50: 2.62 µM
[1]; [7]
  IC50: 8.38 µM
[2]
  IC50: inactive
[3]
  IC50: 5.5 µM
[4]; mean of runs
  IC50: > 100 µM (inactive)
[4]; [6]
  IC50: > 100 µM
[4]; [7]
  IC50: > 100 µM
[5]; [6]
  IC50: 0.686 µM
[5]; [7]
  IC50: > 100 µM
